Laboratory results taken from ChEMBL document CHEMBL1139619, “Exploiting a basic chemosensitizing pharmacophore hypothesis. Part 1: synthesis and biological evaluation of novel arylbromide and bicyclic chemosensitizers against drug-resistant malaria parasites” (Bioorg Med Chem Lett, 2005).
In brackets after ≈: the same amount, converted by molar mass. Several values for one entry are separate records, joined by “and”; a condition that tells them apart may be missing. Equal values may be shown once. Each block holds one compound with its values, some of them ahead of it.

Tests used:
Plasmodium falciparum [1] = experiment: In vitro inhibitory concentration against Plasmodium falciparum FCM29 at 0.3 ug/mL; assay type: functional
Plasmodium falciparum [2] = experiment: (§1) In vitro inhibitory concentration against Plasmodium falciparum FCM29; assay type: functional
Plasmodium falciparum [3] = experiment: (§2) In vitro inhibitory concentration against chloroquine-enhancing Plasmodium falciparum FCM29 at 0.6 ug/mL; assay type: functional
Plasmodium falciparum [4] = experiment: as §1; assay type: functional, organism-based
Plasmodium falciparum [5] = experiment: In vitro inhibition against Plasmodium falciparum FCM29 at 0.3 ug/mL; assay type: functional, organism-based
Plasmodium falciparum [6] = experiment: as §2; assay type: functional, organism-based
Plasmodium falciparum [7] = experiment: (§3) In vitro inhibitory concentration against chloroquine-enhancing Plasmodium falciparum FCM29 at 2 ug/mL; assay type: functional
Plasmodium falciparum [8] = experiment: In vitro inhibition against Plasmodium falciparum FCM29 at 4 ug/mL; assay type: functional, organism-based
Plasmodium falciparum [9] = experiment: (§4) In vitro inhibitory concentration against Plasmodium falciparum FCM29 at 1 ug/mL; assay type: functional, organism-based
Plasmodium falciparum [10] = experiment: (§5) In vitro inhibitory concentration against chloroquine-enhancing Plasmodium falciparum FCM29 at 0.5 ug/mL; assay type: functional
Plasmodium falciparum [11] = experiment: as §4; assay type: functional
Plasmodium falciparum [12] = experiment: In vitro inhibition against Plasmodium falciparum FCM29 at 2 ug/mL; assay type: functional, organism-based
Plasmodium falciparum [13] = experiment: as §3; assay type: functional, organism-based
Plasmodium falciparum [14] = experiment: In vitro inhibitory concentration against Plasmodium falciparum FCM29 at 4 ug/mL; assay type: functional
Plasmodium falciparum [15] = experiment: In vitro inhibitory concentration against Plasmodium falciparum FCM29 at 2 ug/mL; assay type: functional
Plasmodium falciparum [16] = experiment: as §5; assay type: functional, organism-based
Plasmodium falciparum [17] = experiment: (§6) In vitro inhibitory concentration against Plasmodium falciparum FCM29 @ concentration of 00 ug/mL; assay type: functional
[18] = as §6; assay type: functional
[19] = In vitro inhibitory concentration against chloroquine-enhancing Plasmodium falciparum FCM29 @ concentration of 00 ug/mL; assay type: functional
Plasmodium falciparum [20] = experiment: In vitro inhibitory concentration against Plasmodium falciparum FCM29 @ concentration of 0.5 ug/mL; assay type: functional
[21] = In vitro inhibitory concentration against chloroquine-enhancing Plasmodium falciparum FCM29 @ concentration of 1 ug/mL; assay type: functional
Plasmodium falciparum [22] = experiment: (§7) In vitro inhibitory concentration against chloroquine-enhancing Plasmodium falciparum FCM29 at 1.5 ug/mL; assay type: functional
Plasmodium falciparum [23] = experiment: In vitro inhibition against Plasmodium falciparum FCM29 at 3 ug/mL; assay type: functional, organism-based
Plasmodium falciparum [24] = experiment: as §7; assay type: functional, organism-based
Plasmodium falciparum [25] = experiment: In vitro inhibitory concentration against Plasmodium falciparum FCM29 at 3 ug/mL; assay type: functional
Plasmodium falciparum [26] = experiment: (§8) In vitro inhibitory concentration against chloroquine-enhancing Plasmodium falciparum FCM29 at 1.25 ug/mL; assay type: functional, organism-based
Plasmodium falciparum [27] = experiment: (§9) In vitro inhibitory concentration against chloroquine-enhancing Plasmodium falciparum FCM29 at 5 ug/mL; assay type: functional, organism-based
Plasmodium falciparum [28] = experiment: as §8; assay type: functional
Plasmodium falciparum [29] = experiment: In vitro inhibition against Plasmodium falciparum FCM29 at 0.62 ug/mL; assay type: functional, organism-based
Plasmodium falciparum [30] = experiment: In vitro inhibitory concentration against Plasmodium falciparum FCM29 at 0.62 ug/mL; assay type: functional
Plasmodium falciparum [31] = experiment: (§10) In vitro inhibitory concentration against chloroquine-enhancing Plasmodium falciparum FCM29 at 2.5 ug/mL; assay type: functional
Plasmodium falciparum [32] = experiment: as §10; assay type: functional, organism-based
Plasmodium falciparum [33] = experiment: as §9; assay type: functional
Plasmodium falciparum [34] = experiment: In vitro inhibitory concentration against Plasmodium falciparum FCM29 at 0.68 ug/mL; assay type: functional
Plasmodium falciparum [35] = experiment: (§11) In vitro inhibitory concentration against chloroquine-enhancing Plasmodium falciparum FCM29 at 1.36 ug/mL; assay type: functional, organism-based
Plasmodium falciparum [36] = experiment: In vitro inhibition against Plasmodium falciparum FCM29 at 0.68 ug/mL; assay type: functional, organism-based
Plasmodium falciparum [37] = experiment: as §11; assay type: functional
Plasmodium falciparum [38] = experiment: (§12) In vitro inhibitory concentration against chloroquine-enhancing Plasmodium falciparum FCM29 at 3 ug/mL; assay type: functional
Plasmodium falciparum [39] = experiment: as §12; assay type: functional, organism-based
Plasmodium falciparum [40] = experiment: In vitro inhibitory concentration chloroquine-enhancing against chloroquine-enhancing Plasmodium falciparum FCM29 at 0.75 ug/mL; assay type: functional, organism-based
Plasmodium falciparum [41] = experiment: In vitro inhibitory concentration against chloroquine-enhancing Plasmodium falciparum FCM29 at 0.75 ug/mL; assay type: functional
Plasmodium falciparum [42] = experiment: In vitro inhibitory concentration chloroquine-enhancing against Plasmodium falciparum FCM29 at 0.375 ug/mL; assay type: functional
Plasmodium falciparum [43] = experiment: In vitro inhibitory concentration against Plasmodium falciparum FCM29 at 1.5 ug/mL; assay type: functional
Plasmodium falciparum [44] = experiment: In vitro inhibitory concentration against chloroquine-enhancing Plasmodium falciparum FCM29 at 2.50 ug/mL; assay type: functional, organism-based
Plasmodium falciparum [45] = experiment: In vitro inhibitory concentration against chloroquine-enhancing Plasmodium falciparum FCM29 at.62 ug/mL; assay type: functional, organism-based
Plasmodium falciparum [46] = experiment: In vitro inhibitory concentration against chloroquine-enhancing Plasmodium falciparum FCM29 at2.50 ug/mL; assay type: functional

- IC90 (Plasmodium falciparum [1]): 655 nM
- IC90 (Plasmodium falciparum [2]): 24.4 µg/mL (≈ 86.1 µM)
- IC90 (Plasmodium falciparum [3]): 311 nM
- IC50 (Plasmodium falciparum [4]): 1.7 µg/mL (≈ 6 µM)
- IC50 (Plasmodium falciparum [5]): 169 nM
- IC50 (Plasmodium falciparum [6]): 101 nM
SMILES: CCN(CC)CCCOc1ccc(-c2ccccc2)cc1

- IC90 (Plasmodium falciparum [7]): 556 nM
- IC90 (Plasmodium falciparum [2]): 49.5 µg/mL (≈ 175 µM)
- IC50 (Plasmodium falciparum [8]): 3.1 nM
- IC50 (Plasmodium falciparum [9]): 119 nM
- IC50 (Plasmodium falciparum [9]; Plasmodium falciparum): 101 nM
- IC90 (Plasmodium falciparum [10]): 736 nM
- IC90 (Plasmodium falciparum [11]): 255 nM and 745 nM
- IC50 (Plasmodium falciparum [4]): 3.1 µg/mL (≈ 10.9 µM)
- IC50 (Plasmodium falciparum [12]): 70.9 nM
- IC50 (Plasmodium falciparum [13]): 77.7 nM
- IC90 (Plasmodium falciparum [14]): 73.2 nM
- IC90 (Plasmodium falciparum [15]): 205 nM
- IC50 (Plasmodium falciparum [16]): 152 nM
SMILES: CCN(CC)CCCOc1cccc(-c2ccccc2)c1

- IC90 (Plasmodium falciparum [2]): 66.7 µg/mL (≈ 234 µM)
- IC50 (Plasmodium falciparum [8]): 28.7 nM
- IC90 (Plasmodium falciparum [17]): 843 nM
- IC90 (Plasmodium falciparum [10]): 745 nM
- IC50 (Plasmodium falciparum [4]): 6.1 µg/mL (≈ 21.4 µM)
- IC50 (Plasmodium falciparum [12]): 69.3 nM
- IC50 [18]: 161 nM
- IC50 [19]: 161 nM
- IC90 (Plasmodium falciparum [20]): 745 nM
- IC90 (Plasmodium falciparum [14]): 273 nM
- IC50 [21]: 95.9 nM
- IC90 (Plasmodium falciparum [15]): 272 nM
- IC50 (Plasmodium falciparum [16]): 146 nM
SMILES: CCN(CC)CCCNc1ccc(Br)cc1

- IC50 (Plasmodium falciparum [9]; Plasmodium falciparum): 58.2 nM
- IC90 (Plasmodium falciparum [22]): 195 nM
- IC90 (Plasmodium falciparum [11]; Plasmodium falciparum): 290 nM
- IC50 (Plasmodium falciparum [4]): 3.7 µg/mL (≈ 13 µM)
- IC50 (Plasmodium falciparum [23]): 6.1 nM
- IC50 (Plasmodium falciparum [24]): 40.3 nM
- IC50 (Plasmodium falciparum [12]): 28.8 nM
- IC90 (Plasmodium falciparum [25]): 153 nM
- IC90 (Plasmodium falciparum [15]): 134 nM
SMILES: CCN(CC)CCCNc1ccccc1Br

- IC50 (Plasmodium falciparum [26]): 68.5 nM
- IC90 (Plasmodium falciparum [2]): 80.3 µg/mL (≈ 282 µM)
- IC50 (Plasmodium falciparum [27]): 7.2 nM
- IC50 (Plasmodium falciparum [4]): 7.6 µg/mL (≈ 26.6 µM)
- IC90 (Plasmodium falciparum [28]): 392 nM
- IC50 (Plasmodium falciparum [29]): 110 nM
- IC90 (Plasmodium falciparum [30]): 809 nM
- IC90 (Plasmodium falciparum [31]): 443 nM
- IC50 (Plasmodium falciparum [32]): 38.5 nM
- IC90 (Plasmodium falciparum [33]): 210 nM
SMILES: CCN(CC)CCCNc1cccc(Br)c1

- IC90 (Plasmodium falciparum [2]): 20.8 µg/mL (≈ 73.6 µM)
- IC90 (Plasmodium falciparum [34]): 781 nM
- IC50 (Plasmodium falciparum [4]): 2.3 µg/mL (≈ 8.14 µM)
- IC50 (Plasmodium falciparum [35]): 109 nM
- IC50 (Plasmodium falciparum [36]): 160 nM
- IC90 (Plasmodium falciparum [37]): 630 nM
SMILES: CCN(CC)CCCNc1cccc(-c2ccccc2)c1

- IC90 (Plasmodium falciparum [7]): 191 nM
- IC90 (Plasmodium falciparum [2]): 22.3 µg/mL (≈ 78.7 µM)
- IC50 (Plasmodium falciparum [9]; Plasmodium falciparum): 53.9 nM
- IC90 (Plasmodium falciparum [22]): 301 nM
- IC90 (Plasmodium falciparum [11]; Plasmodium falciparum): 534 nM
- IC50 (Plasmodium falciparum [4]): 3.3 µg/mL (≈ 11.6 µM)
- IC90 (Plasmodium falciparum [38]): 157 nM
- IC50 (Plasmodium falciparum [39]): 3 nM
- IC50 (Plasmodium falciparum [24]): 42.9 nM
- IC50 (Plasmodium falciparum [13]): 7.6 nM
SMILES: CCN(CC)CCCOc1ccccc1-c1ccccc1

- IC90 (Plasmodium falciparum [2]): 18.5 µg/mL (≈ 65.5 µM)
- IC50 (Plasmodium falciparum [40]): 54 nM
- IC50 (Plasmodium falciparum [4]): 2.9 µg/mL (≈ 10.3 µM)
- IC90 (Plasmodium falciparum [41]): 198 nM
- IC50 (Plasmodium falciparum [24]): 25.9 nM
- IC90 (Plasmodium falciparum [42]): 98.2 nM and 368 nM
- IC90 (Plasmodium falciparum [43]): 114 nM
SMILES: CCN(CC)CCCNc1ccc(-c2ccccc2)cc1

- IC50 (Plasmodium falciparum [26]): 72.2 nM
- IC50 (Plasmodium falciparum [44]): 11.5 nM
- IC90 (Plasmodium falciparum [2]): 94.6 µg/mL (≈ 335 µM)
- IC50 (Plasmodium falciparum [4]): 3.1 µg/mL (≈ 11 µM)
- IC90 (Plasmodium falciparum [28]): 400 nM
- IC50 (Plasmodium falciparum [45]): 138 nM
- IC90 (Plasmodium falciparum [30]): 820 nM
- IC90 (Plasmodium falciparum [46]): 373 nM
SMILES: CCN(CC)CCCNc1ccccc1-c1ccccc1
